For this assay, the target named is T1, xoFabV (Xanthomonas oryzae, UniProt Q2P9J6).
T1 construct: gene fabV
The settings on record: weak binding, data not shown; no electron density in co-crystals.

This is an account of results in article PMC3198815 (PLoS ONE, 2011).

T1 sequence (Q2P9J6 whole entry, looked up): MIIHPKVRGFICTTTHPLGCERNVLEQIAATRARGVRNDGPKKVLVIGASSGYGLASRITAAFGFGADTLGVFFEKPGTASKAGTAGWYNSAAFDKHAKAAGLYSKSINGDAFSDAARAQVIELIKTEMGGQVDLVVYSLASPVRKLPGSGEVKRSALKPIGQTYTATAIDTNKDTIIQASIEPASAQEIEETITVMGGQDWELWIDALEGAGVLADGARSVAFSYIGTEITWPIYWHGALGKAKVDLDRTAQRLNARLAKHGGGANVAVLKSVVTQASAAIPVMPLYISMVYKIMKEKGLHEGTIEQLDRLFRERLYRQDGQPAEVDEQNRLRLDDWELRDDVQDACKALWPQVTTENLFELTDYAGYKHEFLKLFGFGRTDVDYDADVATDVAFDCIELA

Take `NC(=O)c1ccc[n+]([C@@H]2O[C@H](COP(=O)(O)OP(=O)(O)OC[C@H]3O[C@@H](n4cnc5c(N)ncnc54)[C@H](O)[C@@H]3O)[C@@H](O)[C@H]2O)c1` [NAD^+]: the isothermal titration calorimetry result is reported as “NAD^+ binds weakly to xoFabV according to isothermal titration calorimetry assay (data not shown)”.
